Data taken from patent US12691107B2, “Methods for the treatment and prevention of lung infections caused by gram-positive bacteria, fungus, or virus by administration of tafenoquine” (priority 2020, dated 2026).

Tests used:
SARS-CoV-2 [1] = test: microbe, parasite or virus in culture; type: cell-based; settings: Severe acute respiratory syndrome coronavirus 2, Vero C1008, 96 h
SARS-CoV-2 [2] = test: microbe, parasite or virus in culture; type: cell-based
SARS-CoV-2 [3] = settings: cited from earlier work
[4] = test system: replicating Mycobacterium tuberculosis; settings: cited from earlier work
[5] = test system: Para-Influenza-3 virus, Reovirus, Sindbis virus, Cocsackie B4 virus, Punto Toro virus and Yellow Fever Virus; settings: cited from earlier work
Babesia = settings: mice; cited from earlier work
[6] = in vivo; cited from earlier work
in vitro = settings: African green monkey

CCN(CCO)CCCC(C)Nc1ccnc2cc(Cl)ccc12 (stereo not shown) [Hydroxychloroquine]
inhibition at 33 µM (SARS-CoV-2 [1]; 33 microM, 4-day assay, read-out: inhibition at the highest non-toxic concentration): 43%
EC50 (SARS-CoV-2 [2]; Severe acute respiratory syndrome coronavirus 2, Vero C1008, Vero E6, moi 0.05, 48 hours, TCID50): 10.4 µM
selectivity index (SARS-CoV-2 [2]; calculated relative to the CC50 for the 4-day test): 5.3
fold less potent in CALU-3 than in VERO cells (SARS-CoV-2 [3]): 10 fold

COc1cc(NC(C)CCCN)c2ncccc2c1 (stereo not shown) [Primaquine]
MIC [4]: 256 microgram/ml
EC50 [5]: > 50 µM
dose clearing Babesia parasitemia (Babesia): 100 mg/kg
half-life [6]: approximately 6 hours

CCC(CC)COC(=O)[C@H](C)N[P@](=O)(OC[C@H]1O[C@@](C#N)(c2ccc3c(N)ncnn23)[C@H](O)[C@@H]1O)Oc1ccccc1 [Remdesivir]
EC50 (SARS-CoV-2 [1]): 0.7 µM
CC50 (in vitro): > 100 µM
